Measured values as given in patent US20240124434A1, “ATF6 INHIBITORS AND USES THEREOF” (Altos Labs, Inc., priority 2018, published 2024).
≈ marks a conversion by molar mass, not a printed value. Like-named read-outs stand apart in the source and are kept apart here.

Key:
[1] = In vitro microsomal stability, human liver microsomes; format: in vitro ADME; conditions: for Rem. @ hLM (%): remaining fraction after 30 min, 1 mM NADPH
How it was run: (§1)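 1 μM compound was incubated at 37 °C with 0.5 mg/mL human, mouse or rat liver microsomes and 1 mM NADPH in 100 mM phosphate buffer pH 7.4. Reactions were stopped at 0, 5, 15 and 30 min with cold acetonitrile containing propranolol internal standard.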

ATF6 = assay: ERSE ATF6-luciferase reporter assay (thapsigargin-induced ER stress); format: cell-based, human
CYP1A2 = CYP1A2 (Homo sapiens (Human), UniProt P05177); assay: CYP inhibition in human liver microsomes
How it was run: (§2)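 Pooled human liver microsomes with isoform probe substrates: 2 μM midazolam (CYP3A4, 10 min), 50 μM phenacetin (CYP1A2), 5 μM diclofenac (CYP2C9), both 20 min; CYP2C8 run 20 min, desethylamodiaquine formation. Metabolites (1-hydroxymidazolam, acetaminophen, 4-hydroxydiclofenac) quantified by LC/MS/MS after acetonitrile stop.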

CYP2C9 = CYP2C9 (Homo sapiens (Human), UniProt P11712); assay: CYP inhibition in human liver microsomes
How it was run: as §2

CYP2B6 = CYP2B6 (Homo sapiens (Human), UniProt P20813); assay: CYP inhibition in human liver microsomes
CYP3A4 = CYP3A4 (Homo sapiens (Human), UniProt P08684); assay: CYP inhibition in human liver microsomes
How it was run: as §2

CYP2D6 = CYP2D6 (Homo sapiens (Human), UniProt P10635); assay: CYP inhibition in human liver microsomes
[2] = Kinetic solubility (nephelometry); format: physicochemical; conditions: PBS pH 7.4, 1% DMSO, 1 hour at 37° C., light scattering at 625 nm
Procedure: Concentration (μM) was then calculated by segmental regression. Amiodarone (#A8423 Aldrich) was used as positive control.

[3] = In vitro microsomal stability, rat liver microsomes; format: in vitro ADME; conditions: for Rem. @ rLM (%): remaining fraction after 30 min, 1 mM NADPH; for half-life at 1 μM: rat, read-out: T1/2 @ rLM
How it was run: as §1

[4] = Oral bioavailability and PK parameters in Balb/c mice; conditions: single oral dose 10 mg/kg; for Vz: volume of distribution
Procedure: (§3) Tested compounds were formulated at 1 mg/mL as a dosing solution for oral administration in vehicle A: 10% dimethylacetamide (DMAC), 20% propylene glycol, and 40% PEG-400 or vehicle B: 10% Kolliphor® EL and 10% ethanol (EtOH).
(§4) Animals were acclimated for a minimum period of 4 days upon arrival at the testing facility.
(§5) At the day of study, mice were weighed, identified by marking the tail with numbers using a non-toxic permanent marker, and designated into ten experimental groups (n=3 per group).
(§6) Non-dosed mice were used to collect samples of zero time points. […] Blood samples were centrifuged immediately at 9,000 g at 4° C. for 5 minutes and then plasmas were separated. Plasma samples were placed into individually labeled cryovials and stored in a −80° C. freezer until LC/MS/MS bioanalysis.
(§7) The bioanalysis of plasma samples was conducted with a QTRAP 4500 triple quadrupole mass spectrometer (Applied Biosystems SCIEX) in the positive ion mode and interfaced with an Ekspert Ultra LC100 UPLC System (Eksigent). Calibration standards (0.01 to 10 μM) and QCs (0.02, 0.2 and 2.0 μM) were prepared from naïve mouse plasma in parallel with mouse plasma study samples (60 μL) by precipitation with three volumes of ice cold internal standard solution (acetonitrile containing 20 μM of theophylline). The precipitated samples were centrifuged at 6,100 g for 30 min. Following centrifugation, an aliquot of each supernatant was transferred to an autosampler plate and diluted with two volumes of aqueous mobile phase (0.1% formic acid in water). Samples were injected onto a reverse phase analytical column (YMC Triart C18; 2.0×50 mm; 1.9 μm; YMC CO) and eluted with a gradient of 0.1% formic acid in Acetonitrile. Assayed test compound and internal standards were monitored by a multiple reaction monitoring (MRM) experiment using an Analyst software (v1.6.2, Applied Biosystems SCIEX). Quantitation was conducted using a MultiQuant software (v2.1, Applied Biosystems SCIEX) and the resulting calibration curve was fitted with a linear regression and 1/x weighting. The lower limits of quantitation were 1<LLQ <5 ng/mL.

[5] = In vitro microsomal stability, mouse liver microsomes; format: in vitro ADME; conditions: for Rem. @ mLM (%): remaining fraction after 30 min, 1 mM NADPH
How it was run: as §1

CYP2C19 = CYP2C19 (Homo sapiens (Human), UniProt P33261); assay: CYP inhibition in human liver microsomes
CYP2C8 = CYP2C8 (Homo sapiens (Human), UniProt P10632); assay: CYP inhibition in human liver microsomes; conditions: read-out: CYP-2C8, metabolite desethylamodiaquine
How it was run: as §2

[6] = mouse, in vivo, po, 10 mg/kg
Procedure: as §3, §4, §5, §6, §7

in vivo = conditions: Balb/c, mouse, po, 10 mg/kg
Procedure: as §3, §4, §5, §6, §7

[7] = 1 μM compound, 0.5 mg/mL human liver microsomes
[8] = read-out: CYP-3A4, human liver microsomes, probe substrate midazolam
[9] = 1 μM compound, 0.5 mg/mL rat liver microsomes
[10] = 1 μM compound, 0.5 mg/mL mouse liver microsomes
[11] = human, human liver microsomes, pH 7.4, read-out: T1/2 @ hLM
[12] = pH 7.4, intrinsic clearance, human liver microsomes, read-out: Clint @ hLM
[13] = aqueous buffer, kinetic from dmso stock
[14] = pH 7.4, intrinsic clearance, rat liver microsomes, read-out: Clint @ rLM
[15] = mouse, mouse liver microsomes, pH 7.4, read-out: T1/2 @ mLM
[16] = pH 7.4, intrinsic clearance, mouse liver microsomes, read-out: Clint @ mLM

Sequence of CYP2B6 (P20813 whole entry): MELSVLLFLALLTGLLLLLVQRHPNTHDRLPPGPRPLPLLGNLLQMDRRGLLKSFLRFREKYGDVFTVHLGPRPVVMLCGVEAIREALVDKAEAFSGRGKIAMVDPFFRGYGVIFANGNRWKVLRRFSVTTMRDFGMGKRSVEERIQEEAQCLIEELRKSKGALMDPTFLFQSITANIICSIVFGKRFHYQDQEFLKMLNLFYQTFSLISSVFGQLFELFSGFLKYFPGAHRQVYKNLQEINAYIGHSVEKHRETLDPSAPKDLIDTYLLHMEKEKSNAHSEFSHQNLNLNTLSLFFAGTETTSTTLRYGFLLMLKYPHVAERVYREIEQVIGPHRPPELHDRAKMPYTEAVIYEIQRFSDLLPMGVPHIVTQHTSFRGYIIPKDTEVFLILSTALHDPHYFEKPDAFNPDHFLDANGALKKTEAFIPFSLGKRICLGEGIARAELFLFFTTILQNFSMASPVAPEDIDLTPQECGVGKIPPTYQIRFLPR
Sequence of CYP1A2 (P05177 whole entry, canonical isoform): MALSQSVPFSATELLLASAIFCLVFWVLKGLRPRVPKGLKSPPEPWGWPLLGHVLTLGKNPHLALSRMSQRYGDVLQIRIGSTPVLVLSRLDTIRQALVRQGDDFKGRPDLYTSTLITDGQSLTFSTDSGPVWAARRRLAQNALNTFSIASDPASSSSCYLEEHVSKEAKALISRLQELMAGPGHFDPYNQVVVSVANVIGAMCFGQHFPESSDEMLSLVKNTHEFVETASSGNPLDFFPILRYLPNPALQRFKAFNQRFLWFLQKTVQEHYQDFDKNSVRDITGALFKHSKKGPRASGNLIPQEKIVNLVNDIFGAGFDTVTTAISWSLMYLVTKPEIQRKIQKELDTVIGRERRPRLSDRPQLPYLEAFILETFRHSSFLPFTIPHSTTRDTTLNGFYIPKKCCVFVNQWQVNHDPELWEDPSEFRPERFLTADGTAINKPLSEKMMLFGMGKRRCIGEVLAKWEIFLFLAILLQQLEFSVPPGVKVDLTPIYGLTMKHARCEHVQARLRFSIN
Sequence of CYP2D6 (P10635 whole entry): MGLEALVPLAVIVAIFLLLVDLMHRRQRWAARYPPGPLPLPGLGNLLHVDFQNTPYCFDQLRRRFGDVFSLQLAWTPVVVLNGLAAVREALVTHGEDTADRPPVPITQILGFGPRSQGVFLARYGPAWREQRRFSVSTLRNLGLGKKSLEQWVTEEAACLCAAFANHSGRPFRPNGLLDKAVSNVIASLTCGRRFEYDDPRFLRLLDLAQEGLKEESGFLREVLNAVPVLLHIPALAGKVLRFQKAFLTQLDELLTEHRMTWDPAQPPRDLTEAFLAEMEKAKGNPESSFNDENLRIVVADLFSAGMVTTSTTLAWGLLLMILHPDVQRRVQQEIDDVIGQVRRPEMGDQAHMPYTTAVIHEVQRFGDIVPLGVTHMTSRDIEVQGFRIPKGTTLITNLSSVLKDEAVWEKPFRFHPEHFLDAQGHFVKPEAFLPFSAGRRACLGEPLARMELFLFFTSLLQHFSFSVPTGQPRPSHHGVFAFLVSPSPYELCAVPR
Sequence of CYP2C9 (P11712 whole entry): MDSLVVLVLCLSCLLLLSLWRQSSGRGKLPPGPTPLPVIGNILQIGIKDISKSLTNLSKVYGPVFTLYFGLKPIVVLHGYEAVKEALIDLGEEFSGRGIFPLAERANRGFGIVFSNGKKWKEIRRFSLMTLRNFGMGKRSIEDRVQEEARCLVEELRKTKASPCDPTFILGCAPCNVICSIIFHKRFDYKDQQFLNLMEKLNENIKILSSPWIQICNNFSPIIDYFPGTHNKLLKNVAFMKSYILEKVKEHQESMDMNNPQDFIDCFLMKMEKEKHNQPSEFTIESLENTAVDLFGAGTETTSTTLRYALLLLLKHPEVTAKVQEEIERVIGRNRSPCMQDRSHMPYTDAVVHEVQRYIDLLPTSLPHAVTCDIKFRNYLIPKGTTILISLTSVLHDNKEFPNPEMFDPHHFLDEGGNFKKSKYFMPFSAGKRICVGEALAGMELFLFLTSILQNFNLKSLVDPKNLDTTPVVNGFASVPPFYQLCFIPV
Sequence of CYP3A4 (P08684 whole entry): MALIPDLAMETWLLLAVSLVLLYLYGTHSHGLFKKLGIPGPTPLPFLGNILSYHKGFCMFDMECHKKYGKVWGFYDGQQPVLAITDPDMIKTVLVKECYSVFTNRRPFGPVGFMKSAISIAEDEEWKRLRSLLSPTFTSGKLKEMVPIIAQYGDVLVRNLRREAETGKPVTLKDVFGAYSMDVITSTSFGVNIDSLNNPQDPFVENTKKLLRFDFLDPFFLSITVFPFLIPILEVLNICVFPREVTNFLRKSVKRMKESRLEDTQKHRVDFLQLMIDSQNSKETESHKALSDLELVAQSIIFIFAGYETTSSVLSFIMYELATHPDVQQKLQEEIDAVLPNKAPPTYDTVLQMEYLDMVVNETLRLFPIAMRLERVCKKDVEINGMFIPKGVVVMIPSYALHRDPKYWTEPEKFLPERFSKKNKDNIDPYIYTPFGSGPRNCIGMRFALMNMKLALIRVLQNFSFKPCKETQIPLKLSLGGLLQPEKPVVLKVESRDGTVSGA
Sequence of CYP2C19 (P33261 whole entry): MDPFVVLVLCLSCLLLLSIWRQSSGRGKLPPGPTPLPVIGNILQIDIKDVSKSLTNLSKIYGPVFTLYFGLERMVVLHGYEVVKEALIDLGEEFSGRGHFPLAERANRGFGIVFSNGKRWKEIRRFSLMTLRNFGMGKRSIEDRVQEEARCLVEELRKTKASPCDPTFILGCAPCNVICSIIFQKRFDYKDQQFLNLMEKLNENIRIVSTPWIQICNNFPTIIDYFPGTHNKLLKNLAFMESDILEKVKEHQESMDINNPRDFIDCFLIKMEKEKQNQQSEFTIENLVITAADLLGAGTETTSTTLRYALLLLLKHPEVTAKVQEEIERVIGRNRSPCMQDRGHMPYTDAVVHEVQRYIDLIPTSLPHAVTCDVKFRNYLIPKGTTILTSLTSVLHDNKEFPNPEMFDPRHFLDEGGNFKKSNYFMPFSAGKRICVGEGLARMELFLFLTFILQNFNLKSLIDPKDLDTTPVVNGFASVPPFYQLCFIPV
Sequence of CYP2C8 (P10632 whole entry): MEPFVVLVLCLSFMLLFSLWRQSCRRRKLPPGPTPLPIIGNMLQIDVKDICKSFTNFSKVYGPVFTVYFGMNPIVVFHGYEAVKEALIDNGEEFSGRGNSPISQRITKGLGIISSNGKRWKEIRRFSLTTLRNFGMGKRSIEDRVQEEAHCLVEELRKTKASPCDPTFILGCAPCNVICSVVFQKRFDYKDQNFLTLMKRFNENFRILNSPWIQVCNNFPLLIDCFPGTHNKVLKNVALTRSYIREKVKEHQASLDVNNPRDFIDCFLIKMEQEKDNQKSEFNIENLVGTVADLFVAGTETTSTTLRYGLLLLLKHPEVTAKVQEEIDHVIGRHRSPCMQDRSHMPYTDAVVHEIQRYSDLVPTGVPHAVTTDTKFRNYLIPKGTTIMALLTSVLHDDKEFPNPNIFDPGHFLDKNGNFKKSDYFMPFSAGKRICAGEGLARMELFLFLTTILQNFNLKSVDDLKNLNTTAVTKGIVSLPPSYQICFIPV

O=C(Nc1cnn(Cc2ccc(C(F)(F)F)cc2C(F)(F)F)c1)c1cc(-c2ccco2)on1 [Ceapin-A7, reference compound]
T1/2 @ hLM ([1]; half-life, 1 μM compound, 0.5 mg/mL human liver microsomes): 21.6 min
Clint @ hLM ([1]; intrinsic clearance, human liver microsomes): 64.2 µL/min/mg
Rem. @ hLM (%) [1, 7]: 35.4%
Inh. ATF6-Luc @ 1 μM [%] (ATF6; 1 μM test compound, thapsigargin-induced ER stress, U2-OS ATF6 luc reporter cells, 8 hr): +++ (+++ refers to >50% inhibition at 1 μM test compound)
IC50 (ATF6; dose-response 30 μM to 1 nM, thapsigargin-induced ER stress, U2-OS ATF6 luc reporter cells, read-out: IC50 ATF6-Luc reporter): < 1000 nM
IC50 (CYP1A2; microsomes): > 50 µM
IC50 (CYP2C9; microsomes): > 45.3 µM
IC50 (CYP2B6; microsomes): 7.48 µM
IC50 (CYP3A4; [8]): > 50 µM
IC50 (CYP2D6; microsomes): > 50 µM
solubility kinetic at 1 h [2]: 27.7 µM (≈ 13 µg/mL)
T1/2 @ rLM ([3]; half-life, 1 μM compound, 0.5 mg/mL rat liver microsomes): 11.4 min
Clint @ rLM ([3]; intrinsic clearance, rat liver microsomes): 121 µL/min/mg
Rem. @ rLM (%) [3, 9]: 14.5%
F [%] ([4]; Bioavailability): 1.04%
Last time point for AUClast [4]: 6 h
CL ([4]; clearance): 231 L/h/kg
t1/2 ([4]; half-life): 2.49 h
AUCinf ([4]; plasma): 43.3 ng·h/mL
AUClast ([4]; plasma): 39.1 ng·h/mL
Cmax ([4]; plasma): 68.7 ng/mL
Tmax ([4]; plasma): 15 min
AUCExtr [%] ([4]; plasma, extrapolated AUC): 9.56%
Vz [4]: 831 L/kg
T1/2 @ mLM ([5]; half-life, 1 μM compound, 0.5 mg/mL mouse liver microsomes): 9.84 min
Clint @ mLM ([5]; intrinsic clearance, mouse liver microsomes): 141 µL/min/mg
Rem. @ mLM (%) [5, 10]: 12%

CC(c1ccc(C(F)(F)F)cc1C(F)(F)F)n1cc(NC(=O)c2nnc(-c3cnccn3)s2)cn1 (stereo not shown) [Compound 136, N-(1-(1-(2,4-bis(trifluoromethyl)phenyl)ethyl)-1H-pyrazol-4-yl)-5-(pyrazin-2-yl)-1,3,4-thiadiazole-2-carboxamide]
half-life at […], 1 µM [1, 11]: 93.9 min
microsomal CLint at […], 1 µM [1, 12]: 15 µL/min/mg
Rem. @ hLM (%) [1, 7]: 77.8%
IC50 (ATF6; Homo sapiens, U2OS, dose-response 30 μM to 1 nM, thapsigargin-induced ER stress, U2-OS ATF6 luc reporter cells, read-out: IC50 ATF6-Luc reporter): < 1000 nM
inhibition at 1 µM (ATF6; Homo sapiens, U2OS, 1 μM test compound, thapsigargin-induced ER stress, U2-OS ATF6 luc reporter cells, 8 hr, read-out: Inh. ATF6-Luc @ 1 μM [%]): > 50%
IC50 (CYP1A2; read-out: CYP-1A2, human liver microsomes, probe substrate phenacetin): > 50 µM
IC50 (CYP2C19; read-out: CYP-2C19, human liver microsomes, probe substrate mephenytoin): > 50000 nM
IC50 (CYP2C9; read-out: CYP-2C9, human liver microsomes, probe substrate diclofenac): > 50 µM
IC50 (CYP2B6; read-out: CYP-2B6, human liver microsomes, probe substrate bupropion): > 50 µM
IC50 (CYP2C8): > 50 µM
IC50 (CYP3A4; [8]): > 50 µM
IC50 (CYP2D6; read-out: CYP-2D6, human liver microsomes, probe substrate dextromethorphan): > 50 µM
solubility kinetic at 1 h [2, 13]: 2.34 µM (≈ 1.2 µg/mL)
microsomal CLint at […], 1 µM [3, 14]: 44 µL/min/mg
half-life at 1 μM ([3]; rat liver microsomes, pH 7.4): 31.7 min
Rem. @ rLM (%) [3, 9]: 43.9%
half-life at […], 1 µM [5, 15]: 106 min
microsomal CLint at […], 1 µM [5, 16]: 13 µL/min/mg
Rem. @ mLM (%) [5, 10]: 78.7%

CC(c1ccc(C(F)(F)F)cc1C(F)(F)F)n1cc(NC(=O)c2cc(-c3ccccn3)on2)cn1 (single isomer, unassigned) [“Enantiomer A” of Example S5, N-(1-(1-(2,4-bis(trifluoromethyl)phenyl)ethyl)-1H-pyrazol-4-yl)-5-(pyridin-2-yl)isoxazole-3-carboxamide]
half-life at 1 μM [1, 11]: 99.8 min
microsomal CLint at 1 μM [1, 12]: 13.9 µL/min/mg
Rem. @ hLM (%) [1, 7]: 81.9%
IC50 (ATF6): < 1000 nM
Inh. ATF6-Luc @ 1 μM [%] (ATF6; 8 h, 1 µM): +++ (+++ refers to >50% inhibition at 1 μM test compound)
IC50 (CYP1A2): > 50 µM
IC50 (CYP2C19): 2310 nM
IC50 (CYP2C9): 3.07 µM
IC50 (CYP2B6): 2.49 µM
IC50 (CYP3A4): > 50 µM
IC50 (CYP2D6): 2.3 µM
solubility kinetic at 1 h [2, 13]: 4.68 µM (≈ 2.32 µg/mL)
microsomal CLint at 1 μM [3, 14]: 11.5 µL/min/mg
half-life at 1 μM ([3]; rat liver microsomes, pH 7.4): 121 min
Rem. @ rLM (%) [3, 9]: 80%
AUCExtr [%] ([6]; Balb/c): 43%
F [%] ([6]; Balb/c): 66.3%
Last time point for AUClast [6]: 8 h
AUC(0-inf) (in vivo): 32400 ng·h/mL
AUC(0-t) (in vivo): 18500 ng·h/mL
Cmax (in vivo): 4590 ng/mL
Tmax (in vivo): 1 h
half-life (in vivo): 413 min
Vz [4]: 3.07 L/kg
half-life at 1 μM [5, 15]: 34.9 min
microsomal CLint at 1 μM [5, 16]: 39.7 µL/min/mg
Rem. @ mLM (%) [5, 10]: 53.8%
